The values below are quoted from earlier work in publication PMC4734747 (Journal of nuclear medicine : official publication, Society …, 2013).

For one data set, the system named is P-gp at the BBB. The following applies: brain, macaques, no P-gp inhibition.
Data set [1] relates to P-gp at the human BBB. The following applies: brain, humans, no P-gp inhibition.
Data set [2] concerns P-gp at the human BBB. The following applies: tariquidar 6 mg/kg; not necessarily the maximal increase.
Another data set concerns P-gp. Particulars: rodents; ref 19 (Verbeek et al.).

For `CNC(=O)C(CCN1CCC(O)(c2ccc(Cl)cc2)CC1)(c1ccccc1)c1ccccc1` [dLOP, N-desmethyl-loperamide], the “mean baseline K1” value with P-gp at the BBB was 0.04 mL/min/g; in the data set with P-gp at the human BBB [1], 0.015 mL/min/g. For the same compound, in the data set on P-gp at the human BBB [2], the “increase in the brain distribution (reported by K1) after P-gp inhibition” value is recorded as 4 fold.

In the case of `CNCCCC(C#N)(c1ccc(OC)c(OC)c1)C(C)C` (stereo not shown) [D617], the “affinity to P-gp relative to verapamil” value in the data set on P-gp was “lower affinity to P-gp than does verapamil”.
